In paper PMC6006164, “Natural cyclopeptide RA-V inhibits the NF-κB signaling pathway by targeting TAK1” (Cell Death & Disease, 2018):

Assays:
[1] = tested on: LPS-induced endotoxin shock; assay: Mouse endotoxin shock model; assay type: in vivo, mice
Experimental: The above results prompted us to explore the in vivo effect of RA-V on the NF-κB signaling pathway. We extended our study to the mouse endotoxin shock model, in which mice were intraperitoneally injected with LPS (10 mg/kg or 20 mg/kg) and evaluated for changes by examining physiological parameters induced by the inflammatory response.
First, the mice were intravenously injected with RA-V micelles (0.25 mg/kg body weight) or control micelles at three time points: 52, 28, and 4 h before they were intraperitoneally injected with phosphate-buffered saline (PBS) or LPS (10 mg/kg). One hour after LPS injection, we examined proinflammatory cytokines (IL-6 and TNF-α) production at the transcriptional and translational levels. […] As expected, after receiving the LPS injection, all of the control mice died within 36 h, whereas 60% of the RA-V-treated mice survived (Fig. 2d). To further confirm the in vivo effect of RA-V on the NF-κB pathway, we performed the endotoxin shock model on NF-κB-luciferase transgenic mice.
Fig. 2 RA-V prevents endotoxic shock and inhibits NF-κB activation in vivo. a–c RA-V prevents endotoxic shock in vivo. Mice (n = 6 per group) were intravenously injected with RA-V micelles (0.25 mg/kg body weight) or control micelles 52, 28, and 4 h before an intraperitoneal injection of LPS (10 mg/kg). One hour later, the relative levels of IL-6 and TNF-α mRNAs in the liver were assessed by quantitative RT-PCR (a), the serum IL-6 and TNF-α levels were quantified by ELISA (b), and the expression of p65 and IκBα phosphorylation in the liver were measured by immunoblot analysis c. d RA-V improved animal survival. Mice (n = 20 per group) were intravenously injected with RA-V micelles (0.25 mg/kg body weight) or control micelles 52, 28, and 4 h before intraperitoneal injection of LPS (20 mg/kg). Animal survival was recorded in 2–3 hours intervals. e RA-V inhibits NF-κB activation in vivo. The NF-κB-luc transgenic mice (n = 4 per group) were intravenously injected with RA-V micelles (0.25 mg/kg body weight) or control micelles 52, 28, and 4 h before intraperitoneal injection with LPS (10 mg/kg). NF-κB-luc transgenic mice were photographed at different time points and representative images are shown. The bioluminescent signals from all of the mice were detected and quantified. The data are presented as the means ± S.D. *, p < 0.05; **, p < 0.01

[2] = molecular target: T1, TAK1 (Homo sapiens, UniProt O43318); assay: Streptavidin agarose pull-down with biotin-tagged probe CB12; assay type: binding; details: lysates of HEK293T transfected with TAK1; RA-V in 10-fold excess
T1 construct: expressed in transfected cells; host or cells: HEK293T
T1 sequence (O43318 1-579 isoform O43318-2): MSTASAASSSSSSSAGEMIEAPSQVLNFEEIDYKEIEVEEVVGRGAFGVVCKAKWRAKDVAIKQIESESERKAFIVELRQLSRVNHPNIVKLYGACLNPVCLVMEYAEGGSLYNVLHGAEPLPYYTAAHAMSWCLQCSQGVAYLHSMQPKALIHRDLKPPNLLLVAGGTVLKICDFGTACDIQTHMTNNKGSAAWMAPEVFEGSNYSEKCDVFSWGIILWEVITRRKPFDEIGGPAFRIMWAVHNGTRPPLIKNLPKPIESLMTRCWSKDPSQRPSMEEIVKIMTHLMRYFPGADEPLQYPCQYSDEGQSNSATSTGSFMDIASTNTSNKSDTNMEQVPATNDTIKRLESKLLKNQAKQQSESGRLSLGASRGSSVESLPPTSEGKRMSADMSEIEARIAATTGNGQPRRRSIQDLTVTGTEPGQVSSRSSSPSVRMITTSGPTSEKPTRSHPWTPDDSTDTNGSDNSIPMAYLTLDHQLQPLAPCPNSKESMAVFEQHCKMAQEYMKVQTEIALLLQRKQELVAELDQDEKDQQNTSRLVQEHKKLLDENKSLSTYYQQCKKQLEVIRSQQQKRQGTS
Experimental: HEK293T cells were transfected with TAK1 for 24 h, then the cell lysates were incubated with biotin or CB12 followed by streptavidin agarose pull-down. […] HEK293T cells were transfected with the indicated plasmids for 24 h. The cell lysates were pulled down with streptavidin agarose and then immunoblotted with HA or Flag antibody. Each experiment was repeated at least three times
HEK293T cells were transfected with TAK1-N or TAK1-C for 24 h. The cells lysates were incubated with CB12 or biotin and precipitated with streptavidin-coated sepharose and were analyzed by immunoblotting with Flag antibody. b The model for RA-V binding to the crystal structure of the TAK1–TAB1 fusion protein (PDB 4GS6). […] HEK293T cells were transfected with TAK1 for 24 h, and then the cell lysates were incubated with biotin or CB12 before precipitation with streptavidin agarose. […] HeLa cells were incubated with various concentrations of RA-V for 12 h and then treated with 10 ng/mL TNF-α for 10 min. The cell lysates were prepared and western blotted with the indicated antibodies. Each experiment was repeated at least three times
HEK293T cells were harvested and lysed in RIPA buffer with protease inhibitors. […] The samples were separated by SDS-PAGE, and the bound proteins were detected using the indicated antibodies.

[3] = molecular target: T2, TAK1–TAB1 interaction (Homo sapiens, UniProt O43318+Q15750); assay: Co-immunoprecipitation of TAK1 and TAB1; assay type: cell-based; details: HEK293T, Flag-TAK1 and HA-TAB1; RA-V 800 nM 6 h
T2 construct: expressed in transfected cells; host or cells: HEK293T
T2 sequence (O43318 1-579 isoform O43318-2): T1 sequence (O43318 1-579 isoform O43318-2)
T2 sequence (Q15750 1-504 partner): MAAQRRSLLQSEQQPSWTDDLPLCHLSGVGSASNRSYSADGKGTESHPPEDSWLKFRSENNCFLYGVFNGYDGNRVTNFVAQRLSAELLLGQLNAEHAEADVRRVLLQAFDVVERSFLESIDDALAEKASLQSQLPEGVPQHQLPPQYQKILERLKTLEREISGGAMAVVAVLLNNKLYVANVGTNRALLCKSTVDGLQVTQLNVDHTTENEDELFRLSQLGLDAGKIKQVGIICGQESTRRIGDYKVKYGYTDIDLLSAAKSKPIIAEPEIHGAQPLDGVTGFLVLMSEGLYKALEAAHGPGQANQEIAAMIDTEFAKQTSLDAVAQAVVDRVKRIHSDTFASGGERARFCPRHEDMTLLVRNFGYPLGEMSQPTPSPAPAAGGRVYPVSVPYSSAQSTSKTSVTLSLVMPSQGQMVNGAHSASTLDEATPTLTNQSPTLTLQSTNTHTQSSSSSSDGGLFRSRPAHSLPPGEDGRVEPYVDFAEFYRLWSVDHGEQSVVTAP
Experimental: Fig. 4 RA-V blocks the interaction between TAK1 and TAB2. a RA-V blocked the exogenous TAK1–TAB2 interaction. HEK293T cells were transfected with Flag-TAK1 and HA-TAB2 for 24 h and then incubated with various concentrations of RA-V for 6 h. […] HEK293T cells were transfected with Flag-TAK1 and HA-TRAF6 or HA-TAB1 for 24 h and then incubated with RA-V (800 nM) for 6 h. The cell lysates were immunoprecipitated with HA antibody, and immunoblots were performed with the indicated antibodies. d RA-V blocked the endogenous TAK1–TAB2 interaction. HEK293T (left) or RAW264.7 (right) cells were incubated with 800 nM RA-V for 6 h and stimulated with 10 ng/mL TNF-α for 2 h or 1 μg/mL LPS for 3 h, respectively. The cell lysates were immunoprecipitated with TAK1 antibody or control IgG and then immunoblotted with the indicated antibodies. Each experiment was repeated at least three times
The cell lysates were prepared using radioimmunoprecipitation (RIPA) buffer containing 50 mM Tris-HCl pH 7.4, 150 mM NaCl, 1 mM ethylenediaminetetraacetic acid, 1% Triton X-100, 0.5% deoxycholate, and 0.1% sodium dodecyl sulfate, to which protease inhibitors (Roche) were added. The lysates were incubated with the indicated antibodies before adding 20 μL of Protein A/G agarose for 2 h. After four washes with the same buffer, the immunoprecipitates were boiled in 2 × SDS loading buffer.

[4] = RA-V micelles 0.25 mg/kg i.v. 52, 28, 4 h before LPS 10 mg/kg i.p., 1 h after LPS, n = 6

RA-V
IL-6 and TNF-α in the serum (ELISA) [1, 4]: reduced expression | expression of IL-6 and TNF-α mRNAs in liver tissue [1, 4]: significantly decreased | phosphorylation of IκBα and p65 in liver tissue ([1]; RA-V micelles 0.25 mg/kg i.v. 52, 28, 4 h before LPS 10 mg/kg i.p., immunoblot): clearly inhibited | survival of mice after lethal dose of LPS ([1]; RA-V micelles 0.25 mg/kg i.v. 52, 28, 4 h before LPS 20 mg/kg i.p., n = 20, all control mice died within 36 h): 60% | competition with the CB12–TAK1 interaction (pull-down) [2]: competed away | TAK1–TAB1 interaction [3]: does not disrupt
